Measured values reported in patent US20240261444A1, “RIGIDIFIED MACROCYCLES, COMPLEXES WITH RADIONUCLIDES, AND USE IN TARGETED RADIOTHERAPY OF CANCER” (Cornell University, priority 2021, published 2024).
Where two headings read alike, the source gives them in different places.

What was measured:
[1] = Thermodynamic stability constants of lanthanum complexes by potentiometric titration; details: for pLa (−log [M]free): [M]tot = 10^−6 M, [L]tot = 10^−5 M; for pLa (−log [M]free) / log KLa′ (conditional stability constant): pH 7.4, 25° C., I = 0.1M KCl; for ranking of log KLaL of lanthanum-ligand complexes: equimolar La^3+; for ranking of log KLaL of lanthanum-ligand complexes / stability of complexes with La^3+ (in words): potentiometric titration
Protocol: Thermodynamic stability studies.
(§1) Potentiometric Titrations. Stability constant measurements were carried out by titrating an aqueous solution (˜15 mL) of ligand (˜1 mM), metal (˜1 mM), and HCl (˜10 mM) with standardized KOH (0.1 M). The ionic strength of the solution was maintained at 0.1 M using KCl. The titration method employed a 0.1 mV/min drift limit with a minimum and maximum wait time of 0 s and 300 s respectively between addition of KOH aliquots (0.015 mL volume increments). No metal hydroxide precipitation was observed within the pH range and concentration employed. […] The stability constants were calculated from the average of three independent titrations (using three independently prepared ligand stock solutions from three independent synthetic preparations of ligands).

[2] = Thermodynamic stability constants of barium complexes by potentiometric titration; details: for pBa (−log [M]free): [M]tot = 10^−6 M, [L]tot = 10^−5 M; for pBa (−log [M]free) / log KBa′ (conditional stability constant): pH 7.4, 25° C., I = 0.1M KCl
Protocol: Thermodynamic stability studies.
as §1

[3] = Protonation constants by potentiometric titration; assay type: physicochemical; details: I=0.1 M KCl, 25° C.
Protocol: Potentiometric Titrations. Stability constant measurements were carried out by titrating an aqueous solution (˜15 mL) of ligand (˜1 mM), metal (˜1 mM), and HCl (˜10 mM) with standardized KOH (0.1 M). The ionic strength of the solution was maintained at 0.1 M using KCl. The titration method employed a 0.1 mV/min drift limit with a minimum and maximum wait time of 0 s and 300 s respectively between addition of KOH aliquots (0.015 mL volume increments). […] The titration data within the pH range of 2.2-11.3 were analyzed using Hyperquad2013 software. The stability constants were calculated from the average of three independent titrations (using three independently prepared ligand stock solutions from three independent synthetic preparations of ligands).

[4] = pH 7.4
Protocol: Thermodynamic stability studies.
as §1

[5] = pH 7.4; remark: listed apart in the source
Protocol: Thermodynamic stability studies.
as §1

[6] = assay type: physicochemical
Protocol: H2BZmacropa-NCS Hydrolysis. The stability of BZmacropa-NCS^2— towards hydrolysis was tested as the followings. A solution (1 mL) of H2BZmacropa-NCS (≈1.5 mM) was prepared in 0.1 M Na2CO3/NaHCO3pH 9.1 buffer and stored at room temperature (≈23±1° C.) in a vial covered with aluminum foil. This solution was analyzed periodically by analytical HPLC (method quick-MeCN, 5 μL aliquots) for over a week.

[7] = biological target: T1, human GPC3 protein (Homo sapiens, UniProt P51654); assay: Binding affinity by bio-layer interferometry (BLI); details: immobilized biotinylated human GPC3, antibody 0-25 nM, global fit
T1 construct: biotin (biotinylated); purchased Acro Biosystems, Newark, DE
Protocol: Biotinylated human GPC3 protein (Acro Biosystems, Newark, DE) was diluted to 1 μg/mL in assay buffer: 1×PBS with 0.02% Tween-20 and 0.1% acetylated BSA (Electron Microscopy Sciences, Hatfield, PA) in a 96-well plate and loaded onto streptavidin biosensors (ForteBio, Menlo Park, CA). Antibodies were diluted in assay buffer at 4 concentrations from 0-25 nM and loaded into a 96-well plate (final volume of 200 μL). GPC3 was loaded to a density of 0.3 to avoid avidity affects. Reference wells containing buffer only, GPC3-only and antibody only were used as blanks. Plates were run on an Octet Red96 system (FortéBio, Menlo Park, CA) and analyzed with ForteBio Octet Data Analysis software (v.11). […] The combined association and dissociation kinetic data across all concentrations were fit using the global fitting model in the Octet Analysis Studio software.

[8] = assay type: in vivo, mice
Protocol: Biodistribution. […] At 48 and 96 h post-injection, mice (n=3-4 per time point) were euthanized. Their organs were harvested and weighed, then counted on a gamma counter after allowing 24 h for ^225Ac daughters to equilibrate. The activity in each organ was decay-corrected using a standard of known activity prepared at the same time as the injections. Radiotracer uptake in each organ was calculated by dividing the % injected activity (% IA) in each organ by the organ's weight. Measurement errors are reported as the standard deviation of the % IA/g values (FIGS. 2A-2B).

Compound	log KLaL ([1]; I=0.1 M KCl, 25° C.)	pLa (−log [M]free) [1]	log KLa′ (conditional stability constant) [1]	log KBaL ([2]; I=0.1 M KCl, 25° C.)	pBa (−log [M]free) [2]	log KBa′ (conditional stability constant) [2]	log K1 (protonation constant) [3]	log K2 (protonation constant) [3]	log K3 (protonation constant) [3]	log K4 (protonation constant) [3]	log KBaHL ([2]; I=0.1 M KCl, 25° C.)	ranking of log KLaL of lanthanum-ligand complexes [1]	also measured
O=C(O)CN1CCN(CC(=O)O)CCN(CC(=O)O)CCN(CC(=O)O)CC1 [DOTA]	21.7	16.62	15.67	11.75	6.76	5.72	11.14	9.69	4.85	3.95	–	–	–
O=C(O)CN(CCN(CC(=O)O)CC(=O)O)CCN(CC(=O)O)CC(=O)O [DTPA]	19.48	16.28	–	8.78	6.15	–	10.34	8.59	4.25	2.71	5.34	–	log KLa′ (conditional stability constant) [4]: 15.32; log KBa′ (conditional stability constant) [5]: 4.63; log K5 (protonation constant) [3]: 2.18
O=C(O)CN(CCN(CC(=O)O)CC(=O)O)CC(=O)O [EDTA]	15.46	13.60	12.65	7.80	6.28	4.99	10.19	6.13	2.69	2.00	–	–	–
O=C(O)c1cccc(CN2CCOc3ccccc3OCCN(Cc3cccc(C(=O)O)n3)CCOc3ccccc3OCC2)n1 [H2BZ2macropa, 6,6′-((6,7,9,10,17,18,20,21-octahydro-8H,19H-dibenzo[b,k][1,4,10,13]tetraoxa[7,16]diazacyclooctadecine-8,19-diyl)bis(methylene))dipicolinic acid]	–	–	–	–	–	–	–	–	–	–	–	H2macropa>H2BZmacropa>H2BZ2macropa	stability of complexes with La^3+ (in words) [1]: form highly stable complexes with La^3+
O=C(O)c1cccc(CN2CCOCCOCCN(Cc3cccc(C(=O)O)n3)CCOc3ccccc3OCC2)n1 [H2BZmacropa, 6,6′-((2,3,5,6,8,9,11,12,14,15-decahydro-4H,13H-benzo[b][1,4,10,13]tetraoxa[7,16]diazacyclooctadecine-4,13-diyl)bis(methylene))dipicolinic acid]	13.98	–	–	9.09	9.87	8.91	7.06	6.41	3.33	2.49	3.56	H2macropa>H2BZmacropa>H2BZ2macropa	stability of complexes with La^3+ (in words) [1]: form highly stable complexes with La^3+
O=C(O)c1cccc(CN2CCOCCOCCN(Cc3cc(N=C=S)cc(C(=O)O)n3)CCOCCOCC2)n1 [H2macropa-NCS]	–	–	–	–	–	–	–	–	–	–	–	–	time for complete hydrolysis ([6]; 0.1 M Na2CO3/NaHCO3 pH 9.1 buffer, room temperature): more than a week's time; half-life of hydrolysis of the thiocyanate functional group ([6]; buffer, pH 9.1): 56 h
O=C(O)c1cccc(CN2CCOCCOCCN(Cc3cccc(C(=O)O)n3)CCOCCOCC2)n1 [H2macropa]	14.99	15.58	14.63	11.11	11.69	10.74	7.41	6.90	3.23	2.45	3.76	H2macropa>H2BZmacropa>H2BZ2macropa	log KLaHL ([1]; I=0.1 M KCl, 25° C.): 2.28; log KBaH2L ([2]; I=0.1 M KCl, 25° C.): 2.49
GC33-BZM: "GC33-BZmacropa conjugate"	–	–	–	–	–	–	–	–	–	–	–	–	Kd [7]: 0.19 nM
^225Ac[Ac]-GC33-BZM: "The radioconjugate ^225Ac[Ac]-GC33-BZM"	–	–	–	–	–	–	–	–	–	–	–	–	tumor targeting compared with ^225Ac[Ac]-GC33-M ([8]; mice, intravenous 100 nCi, 48 and 96 h): no significant difference; tumor uptake ([8]; mice, intravenous 100 nCi, 48 and 96 h post-injection): clear, specific tumor uptake at both 48 and 96 h post-injection, with tumor signal greater than that of all organs at both time points; off-target accumulation in liver and femur compared with ^225Ac[Ac]-GC33-M ([8]; mouse, in vivo): higher than that of ^225Ac[Ac]-GC33-M in both the liver and femur at 48 h
